Data reported in patent US10633407B2, “14-membered ketolides and methods of their preparation and use” (President and Fellows of Harvard College, priority 2014, dated 2020).

How the values were obtained:
Assay in all cases: CLSI broth dilution MIC determination
Type in all cases: cell-based
E. coli ATCC 25922 = conditions: E. coli ATCC 25922; Gram-negative
Summary of the method: (§1)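 Method: CLSI broth dilution; endpoint: MIC. Macrolide controls azithromycin and solithromycin added in many cases.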

E. coli CTX-M-14 = conditions: Gram-negative
Summary of the method: as §1

E. coli NDM-1 = conditions: Gram-negative
Summary of the method: as §1

E. coli TEM-1 = conditions: E. coli TEM-1; Gram-negative
Summary of the method: as §1

H. influenzae ATCC49247 = conditions: Gram-negative
Summary of the method: as §1

K. pneumoniae TEM-10 = conditions: Gram-negative
S. aureus ATCC 29213 = conditions: S. aureus ATCC 29213; Gram-positive
Summary of the method: as §1

S. aureus MRSA: USA100 = conditions: S. aureus MRSA: USA100; Gram-positive
Summary of the method: as §1

S. aureus MRSA: USA300 = conditions: S. aureus MRSA: USA300; Gram-positive
Summary of the method: as §1

S. aureus USA600, GISA = conditions: S. aureus USA600, GISA; Gram-positive
Summary of the method: as §1

S. aureus erm A genotype = conditions: S. aureus erm A genotype; Gram-positive
Summary of the method: as §1

S. pneumoniae ATCC 49619 = conditions: S. pneumoniae ATCC 49619; Gram-positive
Summary of the method: as §1

[1] = tested on: S. pneumoniae erm B + mef A genotype; conditions: S. pneumoniae erm B + mef A genotype; Gram-positive
Summary of the method: as §1

[2] = tested on: S. pneumoniae mef A genotype (second strain so labelled); conditions: Gram-positive
Summary of the method: as §1

S. pyogenes ATCC 19615 = conditions: S. pyogenes ATCC 19615; Gram-positive
[3] = tested on: S. pyogenes Macrolide-resistant; conditions: S. pyogenes Macrolide-resistant; Gram-positive
E. faecalis ATCC 29212 = conditions: E. faecalis ATCC 29212; Gram-positive
[4] = tested on: E. faecalis Vancomycin-resistant; conditions: E. faecalis Vancomycin-resistant; Gram-positive
A. baumannii ATCC 19606 = conditions: A. baumannii ATCC 19606; Gram-negative
[5] = tested on: A. baumannii imipenem-resistant; conditions: Gram-negative
[6] = tested on: A. baumannii chromosomal class C; conditions: Gram-negative
A. baumannii IMP-4 = conditions: Gram-negative
K. pneumoniae ATCC 10031 = conditions: K. pneumoniae ATCC 10031; Gram-negative
K. pneumoniae KPC-2 = conditions: Gram-negative
K. pneumoniae SHV-12 = conditions: Gram-negative
P. aeruginosa ATCC 27853 = conditions: P. aeruginosa ATCC 27853; Gram-negative
[7] = tested on: P. aeruginosa HPA101-1477; conditions: Gram-negative
[8] = tested on: H. influenzae Erythro >4, Azithro 1; conditions: H. influenzae Erythro >4, Azithro 1; Gram-negative
Description: MIC data was collected for the novel macrolides that this platform has produced against over 21 unique strains of B. subtilis, E. coli, S. aureus, S. pneumoniae, and H. influenzae, including several multidrug-resistant strains, with a special focus on macrolide resistant mechanisms (vide supra). […] CLSI standard procedures for broth dilution MIC determination were used. […] These genotypes can be constitutive or inducible.

Measured: MIC

CC[C@H]1OC(=O)[C@H](C)C(=O)[C@H](C)[C@@H](O[C@@H]2OC(C)CC(N(C)C)C2O)[C@](C)(OC)C[C@@H](C)C(=O)[C@H](C)[C@H]2N(C/C=C/Cn3cc(-c4cccc(N)n4)nn3)C(=O)O[C@]12C (stereo partly shown) [FSM-100364]
32 mg/L: K. pneumoniae TEM-10
4 mg/L: [5]
< 0.0312 mg/L: S. aureus ATCC 29213 | S. pneumoniae ATCC 49619 | S. pyogenes ATCC 19615 | [3] | E. faecalis ATCC 29212
8 mg/L: A. baumannii ATCC 19606 | [6] | K. pneumoniae ATCC 10031
0.5 mg/L: [8]
2 mg/L: H. influenzae ATCC49247 | S. aureus MRSA: USA300
0.25 mg/L: [2]
0.125 mg/L: [1]
16 mg/L: E. coli ATCC 25922
> 32 mg/L: all other assays above

CC[C@H]1OC(=O)[C@@](C)(F)C(=O)[C@H](C)[C@@H](O[C@@H]2OC(C)CC(N(C)C)C2O)[C@](C)(OC)C[C@@H](C)C(=O)[C@H](C)[C@H]2N(C/C=C\Cn3cc(-c4cccc(N)c4)nn3)C(=O)O[C@]12C (stereo partly shown) [FSM-100431]
32 mg/L: K. pneumoniae ATCC 10031
0.125 mg/L: S. aureus ATCC 29213
< 0.0312 mg/L: S. pneumoniae ATCC 49619 | [2] | S. pyogenes ATCC 19615 | [3] | E. faecalis ATCC 29212
8 mg/L: [1] | [6]
16 mg/L: A. baumannii ATCC 19606 | [5]
> 32 mg/L: all other assays above

CC[C@H]1OC(=O)[C@@](C)(F)C(=O)[C@H](C)[C@@H](O[C@@H]2OC(C)CC(N(C)C)C2O)[C@](C)(OC)C[C@@H](C)C(=O)[C@H](C)[C@H]2N(C/C=C/Cn3nnc(-c4ccccn4)n3)C(=O)O[C@]12C (stereo partly shown) [FSM-100389]
0.0625 mg/L: [1]
32 mg/L: E. coli ATCC 25922 | E. coli TEM-1 | [6]
1 mg/L: H. influenzae ATCC49247 | [8]
4 mg/L: K. pneumoniae ATCC 10031
16 mg/L: A. baumannii ATCC 19606 | [5]
< 0.0312 mg/L: S. aureus ATCC 29213 | S. pneumoniae ATCC 49619 | [2] | S. pyogenes ATCC 19615 | [3] | E. faecalis ATCC 29212
2 mg/L: S. aureus MRSA: USA300
> 32 mg/L: all other assays above

CC[C@H]1OC(=O)[C@H](C)C(=O)[C@H](C)[C@@H](O[C@@H]2OC(C)CC(N(C)C)C2O)[C@](C)(OC)C[C@@H](C)C(=O)[C@H](C)[C@H]2N(C/C=C/Cn3cc(-c4nccs4)nn3)C(=O)O[C@]12C (stereo partly shown) [FSM-11559]
1 mg/L: [1]
≤ 0.0312 mg/L: S. pneumoniae ATCC 49619 | S. pyogenes ATCC 19615 | E. faecalis ATCC 29212
32 mg/L: E. coli TEM-1 | [5]
0.125 mg/L: S. aureus ATCC 29213 | [2] | [3]
16 mg/L: A. baumannii ATCC 19606 | [6]
4 mg/L: H. influenzae ATCC49247 | S. aureus MRSA: USA300 | K. pneumoniae ATCC 10031 | [8]
> 32 mg/L: all other assays above

CC[C@H]1OC(=O)[C@H](C)C(=O)[C@H](C)[C@@H](O[C@@H]2OC(C)CC(N(C)C)C2O)[C@](C)(OC)C[C@@H](C)C(=O)[C@H](C)[C@H]2N(CC3CC3Cn3cc(-c4cccc(N)c4)nn3)C(=O)O[C@]12C (single isomer, unassigned) [FSM-100428]
4 mg/L: H. influenzae ATCC49247 | S. aureus MRSA: USA300
0.0625 mg/L: [1]
< 0.0312 mg/L: S. aureus ATCC 29213 | S. pneumoniae ATCC 49619 | [2] | S. pyogenes ATCC 19615 | [3] | E. faecalis ATCC 29212
32 mg/L: E. coli ATCC 25922 | E. coli TEM-1 | K. pneumoniae TEM-10
2 mg/L: [8]
16 mg/L: A. baumannii ATCC 19606 | [5] | [6] | K. pneumoniae ATCC 10031
> 32 mg/L: all other assays above

CC[C@H]1OC(=O)[C@H](C)C(=O)[C@H](C)[C@@H](O[C@@H]2OC(C)CC(N(C)C)C2O)[C@](C)(OC)C[C@@H](C)C(=O)[C@H](C)[C@H]2N(C/C=C\Cn3cc(-c4cccc(N)c4)nn3)C(=O)O[C@]12C (stereo partly shown) [FSM-100423]
4 mg/L: [8]
0.125 mg/L: S. aureus ATCC 29213
2 mg/L: H. influenzae ATCC49247
32 mg/L: A. baumannii ATCC 19606 | [5] | [6]
< 0.0312 mg/L: S. pneumoniae ATCC 49619 | [2] | S. pyogenes ATCC 19615 | [3] | E. faecalis ATCC 29212
16 mg/L: K. pneumoniae ATCC 10031
0.0625 mg/L: [1]
> 32 mg/L: all other assays above

CC[C@H]1OC(=O)[C@H](C)C(=O)[C@H](C)[C@@H](O[C@@H]2OC(C)CC(N(C)C)C2O)[C@](C)(OC)C[C@@H](C)C(=O)[C@H](C)[C@H]2N(C/C=C/Cn3cc(-c4ccccn4)nn3)C(=O)O[C@]12C (stereo partly shown) [FSM-100341]
1 mg/L: H. influenzae ATCC49247 | [8]
0.25 mg/L: [1]
< 0.0312 mg/L: S. aureus ATCC 29213 | S. pneumoniae ATCC 49619 | [2] | S. pyogenes ATCC 19615 | [3] | E. faecalis ATCC 29212
16 mg/L: A. baumannii ATCC 19606 | [5]
2 mg/L: S. aureus MRSA: USA300
32 mg/L: E. coli TEM-1 | K. pneumoniae TEM-10 | [6]
8 mg/L: K. pneumoniae ATCC 10031
> 32 mg/L: all other assays above
